Data taken from article PMC3652196, “Pharmacometrics of 3-Methoxypterostilbene: A Component of Traditional Chinese Medicinal Plants” (Evidence-based Complementary and Alternative Medicine : eCAM, 2013).
Values joined by “and” are separate entries in the source; they are usually repeats but may differ in a detail not shown here. Identical values can stand only once. “Also recorded” adds a separate entry of the source.

How the values were obtained:
[1] = Antioxidant capacity (inhibition of oxidation of ABTS to ABTS radical cation by metmyoglobin, Cayman kit); type: biochemical; details: for Antioxidant capacity (Trolox equivalents): n = 4, mean ± SEM
Method: The amount of ABTS^∙+ can be monitored spectrophotometrically. The degree of suppression of absorbance caused by the compound of interest is proportional to the concentration of […], which is expressed as Trolox equivalents (μg/mL). […] No additional dilution was employed. To run the assay, 10 μL of sample was combined with 10 μL metmyoglobin and 150 μL chromogen. Then, 40 μL of hydrogen peroxide working solution was added within 1 min to all the samples. The plate was covered and incubated on a shaker for 5 min at room temperature […]), and the absorbance was measured at 750 nm using the Synergy HT multiwell plate reader and Gen5 data analysis software (Biotek Instruments Inc., Winooski, VT, USA). The assay was performed in quadruplet. For more information regarding the assay protocol, please refer to the instructions for the kit (Antioxidant Assay Kit from Cayman Chemical—Cat. no. 709091).

COX-1 = biological target: T1, COX-1 (Ovis aries, UniProt P05979); assay: COX inhibitor screening assay (EIA of prostaglandins), COX-1; type: biochemical
T1 construct: purchased Cayman Chemical 560131
T1 sequence (P05979 25-600): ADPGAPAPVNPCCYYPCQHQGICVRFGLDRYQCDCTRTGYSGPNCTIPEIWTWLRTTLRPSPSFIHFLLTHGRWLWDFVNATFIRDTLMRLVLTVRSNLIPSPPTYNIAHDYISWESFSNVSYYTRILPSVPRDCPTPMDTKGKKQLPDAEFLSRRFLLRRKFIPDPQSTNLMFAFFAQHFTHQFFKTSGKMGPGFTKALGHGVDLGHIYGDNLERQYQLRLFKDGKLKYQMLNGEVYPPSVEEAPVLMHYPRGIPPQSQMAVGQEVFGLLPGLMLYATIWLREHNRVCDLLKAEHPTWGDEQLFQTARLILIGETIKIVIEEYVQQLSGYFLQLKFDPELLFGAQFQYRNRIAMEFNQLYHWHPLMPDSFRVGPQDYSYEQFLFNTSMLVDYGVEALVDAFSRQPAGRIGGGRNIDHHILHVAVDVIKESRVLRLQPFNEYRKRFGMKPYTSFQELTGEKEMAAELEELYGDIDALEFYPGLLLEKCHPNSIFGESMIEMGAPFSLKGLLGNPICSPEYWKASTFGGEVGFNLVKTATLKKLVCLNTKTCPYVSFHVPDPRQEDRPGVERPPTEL
Method: (§1) The inhibition of COX-1 and -2 by 3-methoxypterostilbene was measured through the use of a three-day commercial assay kit. The assay relied on the quantification of the prostanoid product based on enzyme immunoassay (EIA), which uses a nonspecific antibody for prostaglandins (PGs). The constant concentration of the PG-AChE-tracer and the varying concentrations of the PGs available to bind to the antiserum is inversely proportional to the concentration of free PGs in the well. For this assay, 3-methoxypterostilbene was dissolved in DMSO over the concentration range of 1–250 μg/mL. Ibuprofen and etodolac, COX-2 preferential NSAIDs, were dissolved in DMSO and used as controls over the concentration range of 1–250 μg/mL. Reagents were prepared according to the manufacturer's instructions that accompanied the kit. The ELISA plate for this purpose was read at an absorbance of 415 nm within 10 minutes at room temperature (23 ± 1°C) using the Synergy HT multiwell plate reader and Gen5 data analysis software (Biotek Instruments Inc., Winooski, VT, USA). The assay was performed in quadruplet. For more information regarding the assay protocol, please refer to the instructions for the kit (COX Inhibitor Screening Assay Kit from Cayman Chemical—Cat. no. 560131).

COX-2 = biological target: T2, COX-2 (Homo sapiens, UniProt P35354); assay: COX inhibitor screening assay (EIA of prostaglandins), COX-2; type: biochemical
T2 construct: purchased Cayman Chemical 560131
T2 sequence (P35354 18-604): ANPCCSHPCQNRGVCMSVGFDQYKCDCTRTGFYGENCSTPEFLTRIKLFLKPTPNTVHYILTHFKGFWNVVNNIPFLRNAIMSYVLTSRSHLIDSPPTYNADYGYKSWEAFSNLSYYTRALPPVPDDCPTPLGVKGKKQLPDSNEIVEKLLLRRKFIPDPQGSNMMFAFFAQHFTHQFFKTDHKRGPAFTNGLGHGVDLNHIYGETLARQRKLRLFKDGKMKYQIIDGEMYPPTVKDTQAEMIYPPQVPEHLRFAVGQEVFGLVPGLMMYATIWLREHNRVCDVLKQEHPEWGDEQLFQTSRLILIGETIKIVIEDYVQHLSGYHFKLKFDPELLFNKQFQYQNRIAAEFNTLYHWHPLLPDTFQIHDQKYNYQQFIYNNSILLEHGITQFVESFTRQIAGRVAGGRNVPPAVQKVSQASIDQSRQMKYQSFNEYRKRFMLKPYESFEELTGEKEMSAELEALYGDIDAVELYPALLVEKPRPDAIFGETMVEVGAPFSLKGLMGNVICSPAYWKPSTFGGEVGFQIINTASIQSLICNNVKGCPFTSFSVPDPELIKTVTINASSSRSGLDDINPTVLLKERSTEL
Method: as §1

[2] = system: α-glucosidase from Saccharomyces cerevisiae; assay: α-Glucosidase inhibition colorimetric assay (PNPG); type: biochemical; details: 0 to 200 μg/mL, n = 6
[3] = biological target: T3, α-amylase from porcine pancreas type VI-B (Sus scrofa, UniProt P00690); assay: α-Amylase inhibition colorimetric assay (BPNPG7, amylase HR reagent); type: biochemical
T3 construct: α-amylase from porcine pancreas type VI-B; purchased Sigma-Aldrich; host or cells: porcine pancreas
T3 sequence (P00690 16-511): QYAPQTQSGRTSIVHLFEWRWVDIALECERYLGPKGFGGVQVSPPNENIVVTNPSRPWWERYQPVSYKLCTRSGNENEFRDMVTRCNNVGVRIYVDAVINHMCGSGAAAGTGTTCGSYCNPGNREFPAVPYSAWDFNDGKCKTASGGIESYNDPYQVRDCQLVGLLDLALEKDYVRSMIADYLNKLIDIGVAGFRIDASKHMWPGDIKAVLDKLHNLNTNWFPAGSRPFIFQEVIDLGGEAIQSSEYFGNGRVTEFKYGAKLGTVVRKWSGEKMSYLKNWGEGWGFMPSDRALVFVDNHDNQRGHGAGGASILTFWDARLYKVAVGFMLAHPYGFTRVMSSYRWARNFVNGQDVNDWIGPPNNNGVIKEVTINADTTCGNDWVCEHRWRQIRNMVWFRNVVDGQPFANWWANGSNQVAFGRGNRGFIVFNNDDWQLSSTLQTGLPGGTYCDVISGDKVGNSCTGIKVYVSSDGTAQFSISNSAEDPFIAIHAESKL

9 KB = system: 9 KB; set-up: method as in PMID 3598597; details: cited from earlier work
crown-gall = system: crown-gall; set-up: method as in PMID 3598597; details: cited from earlier work
[4] = computer model; cited from earlier work

COc1cc(/C=C/c2ccc(O)c(OC)c2)cc(OC)c1 [3-methoxypterostilbene, trans-3,3′-5-trimethoxy-4′-hydro-xystilbene]
Antioxidant activity (in words) ([1]; 1-100 μg/mL): modest concentration-dependent antioxidant activity | Antioxidant capacity (Trolox equivalents) ([1]; at 1 μg/mL in DMSO): 98.6 ± 13.7 μg/mL and 0.394 ± 0.0546 mM | Antioxidant capacity (Trolox equivalents) ([1]; at 100 μg/mL in DMSO): 174 ± 2.70 μg/mL and 0.695 ± 0.0094 mM | COX-1 inhibition versus NSAIDs (in words) (COX-1; 250 μg/mL, compared with ibuprofen and etodolac): significantly greater activity (P < 0.05) than the NSAIDs at low doses | COX-1 inhibitory activity (in words) (COX-1; 1, 10 and 250 μg/mL): positive concentration-dependent inhibitory activity; also recorded: strong COX-1 inhibition comparable to two NSAIDs | COX-2 inhibition versus NSAIDs (in words) (COX-2; 10 μg/mL): statistically greater inhibition (P < 0.05) than etodolac at 1 μg/mL and ibuprofen at 250 μg/mL | COX-2 inhibitory activity (in words) (COX-2; 1, 10 and 250 μg/mL): moderate inhibition of COX-2 | α-Glucosidase inhibition (in words) [2]: does not appear to exhibit greater inhibition at higher concentrations | α-Amylase inhibition (in words) ([3]; 0 to 200 μg/mL, n = 6): relatively weak inhibition of α-amylase | α-Amylase activity at the highest concentrations tested (in words) ([3]; highest concentrations tested): appears to increase activity of α-amylase | Activity in 9 KB cytotoxicity assay compared with piceatannol (9 KB): significantly greater activity | Activity in crown-gall plant antitumor (potato disk) assay compared with piceatannol (crown-gall): significantly greater activity | Modeled antioxidant potency [4]: greater potency than resveratrol
